17 compounds from patent publication US20060281771A1, “SYNERGISTIC MODULATION OF FLT3 KINASE USING AMINOQUINOLINE AND AMINOQUINAZOLINE KINASE MODULATORS” (priority 2005, published 2006) can be followed below.

Where only a bound is given, the exact number is not on record here.

One assay relates to MV4-11 cells. Kind of assay: Inhibition of MV4-11 cell proliferation (CellTiterGlo, 72 h). Format: cell-based. Conditions: Homo sapiens; 72 h growth inhibition. As to the method: To assess the cellular potency of the FLT3 inhibitors of Formula I′, FLT3 specific growth inhibition was measured in the leukemic cell line MV4-11 (ATCC Number: CRL-9591). […] MV4-11 cells cannot grow and survive without active FLT3ITD.
To measure proliferation inhibition by test compounds, the luciferase based CellTiterGlo reagent (Promega), which quantifies total cell number based on total cellular ATP concentration, was used. Cells are plated at 10,000 cells per well in 100 ul of in RPMI media containing penn/strep, 10% FBS and 1 ng/ml GM-CSF or 1 ng/ml IL-3 for MV4-11 and Baf3 cells respectively.
Compound dilutions or 0.1% DMSO (vehicle control) are added to cells and the cells are allowed to grow for 72 hours at standard cell growth conditions (37° C., 5% CO2). For activity measurements in MV4-11 cells grown in 50% plasma, cells were plated at 10,000 cells per well in a 1:1 mixture of growth media and human plasma (final volume of 100 μL). To measure total cell growth an equal volume of CellTiterGlo reagent was added to each well, according to the manufacturer's instructions, and luminescence was quantified. Total cell growth was quantified as the difference in luminescent counts (relative light units, RLU) of cell number at Day 0 compared to total cell number at Day 3 (72 hours of growth and/or compound treatment). One hundred percent inhibition of growth is defined as an RLU equivalent to the Day 0 reading. Zero percent inhibition was defined as the RLU signal for the DMSO vehicle control at Day 3 of growth. All data points are an average of triplicate samples. […] Inhibition and IC50 data analysis was done with GraphPad Prism using a non-linear regression fit with a multiparamater, sigmoidal dose-response (variable slope) equation.
MV4-11 cells express the FLT3 internal tandem duplication mutation, and thus are entirely dependent upon FLT3 activity for growth. […] In contrast, the Baf3 cell proliferation is driven by the cytokine IL-3 and thus are used as a non-specific toxicity control for test compounds.

The target in assay [1] is T1, wild-type FLT3 phosphorylation in Baf3 FLT3 cells (Homo sapiens, UniProt P36888).
T1 construct: host or cells: Baf3 (murine B cell lymphoma line)
T1 sequence (P36888 27-993): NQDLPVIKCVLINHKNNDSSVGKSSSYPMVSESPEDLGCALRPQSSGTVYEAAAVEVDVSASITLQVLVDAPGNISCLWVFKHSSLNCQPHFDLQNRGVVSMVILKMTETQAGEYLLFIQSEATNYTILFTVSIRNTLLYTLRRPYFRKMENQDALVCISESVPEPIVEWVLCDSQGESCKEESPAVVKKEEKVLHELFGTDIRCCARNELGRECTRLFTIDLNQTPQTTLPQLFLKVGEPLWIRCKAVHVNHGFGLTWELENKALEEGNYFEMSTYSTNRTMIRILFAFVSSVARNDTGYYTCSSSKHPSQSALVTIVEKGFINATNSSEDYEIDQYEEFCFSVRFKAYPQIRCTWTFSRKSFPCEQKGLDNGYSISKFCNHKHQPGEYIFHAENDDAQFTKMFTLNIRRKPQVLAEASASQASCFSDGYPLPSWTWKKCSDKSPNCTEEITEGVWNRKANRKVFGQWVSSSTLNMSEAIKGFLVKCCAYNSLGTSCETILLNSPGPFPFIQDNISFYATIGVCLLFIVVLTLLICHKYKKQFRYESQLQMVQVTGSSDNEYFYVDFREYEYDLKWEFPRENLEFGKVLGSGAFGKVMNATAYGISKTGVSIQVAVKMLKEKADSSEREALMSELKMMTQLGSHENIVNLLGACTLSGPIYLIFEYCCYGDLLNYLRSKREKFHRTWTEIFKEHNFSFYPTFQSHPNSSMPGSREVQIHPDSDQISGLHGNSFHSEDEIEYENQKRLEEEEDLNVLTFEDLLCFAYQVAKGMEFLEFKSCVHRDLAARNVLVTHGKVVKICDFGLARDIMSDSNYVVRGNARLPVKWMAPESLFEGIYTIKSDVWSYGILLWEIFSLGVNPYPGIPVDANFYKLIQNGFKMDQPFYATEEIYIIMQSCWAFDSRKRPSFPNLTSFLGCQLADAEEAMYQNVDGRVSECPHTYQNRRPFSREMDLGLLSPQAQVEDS
Kind of assay: Cell-based FLT3 receptor ELISA. Conditions: FLT ligand-induced FLT3 phosphorylation. As to the method: Specific cellular inhibition of FLT ligand-induced wild-type FLT3 phosphorylation was measured in the following manner: Baf3 FLT3 cells overexpressing the FLT3 receptor were obtained from Dr. Michael Heinrich (Oregon Health and Sciences University). The Baf3 FLT3 cell lines were created by stable transfection of parental Baf3 cells (a murine B cell lymphoma line dependent on the cytokine IL-3 for growth) with wild-type FLT3. Cells were selected for their ability to grow in the absence of IL-3 and in the presence of FLT3 ligand.
Baf3 cells were maintained in RPMI 1640 with 10% FBS, penn/strep and 10 ng/ml FLT ligand at 37° C., 5% CO2. To measure direct inhibition of the wild-type FLT3 receptor activity and phosphorylation a sandwich ELISA method was developed similar to those developed for other RTKs (see Sadick, M D, Sliwkowski, M X, Nuijens, A, Bald, L, Chiang, N, Lofgren, J A, Wong W L T. Analysis of Heregulin-Induced ErbB2 Phosphorylation with a High-Throughput Kinase Receptor Activation Enzyme-Linked Immunsorbent Assay, Analytical Biochemistry. 1996; 235:207-214 and Baumann C A, Zeng L, Donatelli R R, Maroney A C. Development of a quantitative, high-throughput cell-based enzyme-linked immunosorbent assay for detection of colony-stimulating factor-1 receptor tyrosine kinase inhibitors. J Biochem Biophys Methods. 2004; 60:69-79.). 200 μL of Baf3FLT3 cells (1×10^6/mL) were plated in 96 well dishes in RPMI 1640 with 0.5% serum and 0.01 ng/mL IL-3 for 16 hours prior to 1 hour compound or DMSO vehicle incubation. Cells were treated with 100 ng/mL Flt ligand (R&D Systems Cat# 308-FK) for 10 min. at 37° C. Cells were pelleted, washed and lysed in 100 ul lysis buffer (50 mM Hepes, 150 mM NaCl, 10% Glycerol, 1% Triton-X-100, 10 mM NaF, 1 mM EDTA, 1.5 mM MgCl2, 10 mM NaPyrophosphate) supplemented with phosphatase (Sigma Cat# P2850) and protease inhibitors (Sigma Cat #P8340). Lysates were cleared by centrifugation at 1000×g for 5 minutes at 4° C. Cell lysates were transferred to white wall 96 well microtiter (Costar #9018) plates coated with 50 ng/well anti-FLT3 antibody (Santa Cruz Cat# sc-480) and blocked with SeaBlock reagent (Pierce Cat#37527). Lysates were incubated at 4° C. for 2 hours. Plates were washed 3× with 200 ul/well PBS/0.1% Triton-X-100. Plates were then incubated with 1:8000 dilution of HRP-conjugated anti-phosphotyrosine antibody (Clone 4G10, Upstate Biotechnology Cat#16-105) for 1 hour at room temperature. Plates were washed 3× with 200 ul/well PBS/0.1% Triton-X-100. Signal detection with Super Signal Pico reagent (Pierce Cat#37070) was done according to manufacturer's instruction with a Berthold microplate luminometer. All data points are an average of triplicate samples. […] Inhibition and IC50 data analysis was done with GraphPad Prism using a non-linear regression fit with a multiparamater, sigmoidal dose-response (variable slope) equation.
A general note: ELISA stands for enzyme-linked immunosorbent assay.

The IC50 is the concentration at which inhibition is half-maximal. For `COc1cc2ncnc(N3CCC(NC(=O)Nc4ccc(OC(C)C)cc4)CC3)c2cc1OC` [Compound 58, 1-[1-(6,7-Dimethoxy-quinazolin-4-yl)-piperidin-4-yl]-3-(4-isopropoxy-phenyl)-urea], the 50% inhibitory concentration (IC50) turned out to be 7 nM in the assay with MV4-11 cells and 180 nM in assay [1].
On to `COc1cc2ncnc(N3CCC(NC(=O)Nc4ccc(N5CCOCC5)cc4)CC3)c2cc1OC` [Compound 59, 1-[1-(6,7-Dimethoxy-quinazolin-4-yl)-piperidin-4-yl]-3-(4-morpholin-4-yl-phenyl)-urea], for which the IC50 in the assay on MV4-11 cells was 410 nM; in assay [1], 43 nM.
Take `COc1cc2ncnc(N3CCC(NC(=O)Nc4ccc(N5CCCC5)cc4)CC3)c2cc1OC` [Compound 60, 1-[1-(6,7-Dimethoxy-quinazolin-4-yl)-piperidin-4-yl]-3-(4-pyrrolidin-1-yl-phenyl)-urea]: the IC50 in the assay with MV4-11 cells came out at 528 nM; in assay [1], 18 nM.
With `COc1cc2ncnc(N3CCC(NC(=O)Nc4ccc(N(C)C)cc4)CC3)c2cc1OC` [Compound 62, 1-[1-(6,7-Dimethoxy-quinazolin-4-yl)-piperidin-4-yl]-3-(4-dimethylamino-phenyl)-urea], the values for the IC50 (in the assay with MV4-11 cells; in assay [1]) were 941 nM and 16 nM, respectively.
The corresponding values for `CC(C)c1ccc(NC(=O)NC2CCN(c3ncnc4ccccc34)CC2)cc1` [Compound 63, 1-(4-Isopropyl-phenyl)-3-(1-quinazolin-4-yl-piperidin-4-yl)-urea] are 502 nM and 20 nM.
The matching figures for `COc1ccc2ncnc(N3CCC(NC(=O)Nc4ccc(C(C)C)cc4)CC3)c2c1` [Compound 64, 1-(4-Isopropyl-phenyl)-3-[1-(6-methoxy-quinazolin-4-yl)-piperidin-4-yl]-urea]: 16 nM and 11 nM.
The corresponding values for `COc1ccc2c(N3CCC(NC(=O)Nc4ccc(C(C)C)cc4)CC3)ncnc2c1` [Compound 65, 1-(4-Isopropyl-phenyl)-3-[1-(7-methoxy-quinazolin-4-yl)-piperidin-4-yl]-urea] are 321 nM and 178 nM.
In the case of `COc1cc2ncnc(N3CCC(NC(=O)Nc4ccc(C(C)C)cc4)CC3)c2cc1OC` [Compound 66, 1-[1-(6,7-Dimethoxy-quinazolin-4-yl)-piperidin-4-yl]-3-(4-isopropyl-phenyl)-urea], the IC50 (in the assay with MV4-11 cells; in assay [1]) was 1 nM in each case.
On to `COc1cc2ncnc(N3CCC(NC(=O)Nc4ccc(OC5CCCC5)cc4)CC3)c2cc1OC` [Compound 67, 1-(4-Cyclopentyloxy-phenyl)-3-[1-(6,7-dimethoxy-quinazolin-4-yl)-piperidin-4-yl]-urea], for which the values for the IC50 (in the assay on MV4-11 cells; in assay [1]) were 470 nM and 1400 nM, respectively.
As for `COc1cc2ncnc(N3CCC(NC(=O)Nc4ccc(N5CCCC5)nc4)CC3)c2cc1OC` [Compound 68, 1-[1-(6,7-Dimethoxy-quinazolin-4-yl)-piperidin-4-yl]-3-(6-pyrrolidin-1-yl-pyridin-3-yl)-urea], the IC50 worked out at 134 nM with MV4-11 cells and 16 nM in assay [1].
The corresponding values for `CC(C)c1ccc(NC(=O)NC2CCN(c3ncnc4cc(F)ccc34)C2)cc1` (stereo not shown) [Compound 69, 1-[1-(7-Fluoro-quinazolin-4-yl)-pyrrolidin-3-yl]-3-(4-isopropyl-phenyl)-urea] are 128 nM and less than 1 nM.
The corresponding values for `CC(C)c1ccc(NC(=O)NC2CCN(c3ncnc4cc(OCCN5CCCC5=O)ccc34)C2)cc1` (stereo not shown) [Compound 70, 1-(4-Isopropyl-phenyl)-3-(1-{7-[2-(2-oxo-pyrrolidin-1-yl)-ethoxy]-quinazolin-4-yl}-pyrrolidin-3-yl)-urea] are 21 nM and 80 nM.
The corresponding values for `COCCOc1ccc2c(N3CCC(NC(=O)Nc4ccc(C(C)C)cc4)C3)ncnc2c1` (stereo not shown) [Compound 71, 1-(4-Isopropyl-phenyl)-3-{1-[7-(2-methoxy-ethoxy)-quinazolin-4-yl]-pyrrolidin-3-yl}-urea] are 1 nM and 1 nM.
For `CC(C)c1ccc(NC(=O)NC2CCN(c3ncnc4cc(F)ccc34)CC2)cc1` [Compound 72, 1-[1-(7-Fluoro-quinazolin-4-yl)-piperidin-4-yl]-3-(4-isopropyl-phenyl)-urea], the IC50 in the assay on MV4-11 cells was determined as 245 nM; in assay [1], 30 nM.
The corresponding values for `COCCOc1ccc2c(N3CCC(NC(=O)Nc4ccc(C(C)C)cc4)CC3)ncnc2c1` [Compound 73, 1-(4-Isopropyl-phenyl)-3-{1-[7-(2-methoxy-ethoxy)-quinazolin-4-yl]-piperidin-4-yl}-urea] are 208 nM and 109 nM.
The corresponding values for `CC(C)c1ccc(NC(=O)NC2CCN(c3ncnc4cc(OCCN5CCCC5=O)ccc34)CC2)cc1` [Compound 74, 1-(4-Isopropyl-phenyl)-3-(1-{7-[2-(2-oxo-pyrrolidin-1-yl)-ethoxy]-quinazolin-4-yl}-piperidin-4-yl)-urea] are 177 nM and 4 nM.
The corresponding values for `CC(C)c1ccc(NC(=O)NC2CCN(c3ncnc4cc(OCCCN5CCN(C)CC5)ccc34)CC2)cc1` [Compound 75, 1-(4-Isopropyl-phenyl)-3-(1-{7-[3-(4-methyl-piperazin-1-yl)-propoxy]-quinazolin-4-yl}-piperidin-4-yl)-urea] are 1 nM and 1 nM.
